Results reported in patent US20100298141A1, “SUBSTITUTED PYRIDINE N-OXIDE HERBICIDES” (E. I. DU PONT DE NEMOURS AND COMPANY, priority 2007, published 2010).

Assays:
[1] = system: giant foxtail; assay: Test C pre-/postemergence test; assay type: in vivo, Setaria faberii; conditions: for Plant response rating, Foxtail, Giant: 31 g ai/ha, scale 0 to 100 (0 no effect, 100 complete control)
How it was run: (§1)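 Test chemicals were formulated with surfactant in a non-phytotoxic solvent and sprayed both on freshly planted seeds (preemergence) and on 1- to 4-leaf plants of 2–18 cm (postemergence). Flooded-paddy pots received compound directly into 3 cm of standing water, maintained for the test.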

[2] = system: wheat; assay: Test A pre-/postemergence greenhouse test; assay type: in vivo, Triticum aestivum; conditions: for Plant response rating, Wheat: 0 to 100 scale where 0 is no effect and 100 is complete control; for Wheat plant response rating: 0 to 100 scale
How it was run: (§2)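 Pre: directed soil spray on seeded loam/sand. Post: foliar spray, plants 2–10 cm, 1–2 leaf stage, applied concurrently. Vehicle: non-phytotoxic solvent + surfactant. Greenhouse ~10 d; visual injury rating vs untreated controls.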

[3] = system: crabgrass; assay: Test A pre-/postemergence greenhouse test; assay type: in vivo, Digitaria sanguinalis; conditions: for Plant response rating, Crabgrass, Large: 0 to 100 scale where 0 is no effect and 100 is complete control; for Crabgrass, Large plant response rating: 0 to 100 scale
How it was run: as §2

[4] = system: velvetleaf; assay: Test C pre-/postemergence test; assay type: in vivo, Abutilon theophrasti; conditions: for Plant response rating, Velvetleaf: 31 g ai/ha, scale 0 to 100 (0 no effect, 100 complete control)
How it was run: as §1

[5] = system: Surinam grass; assay: Test C pre-/postemergence test; assay type: in vivo, Brachiaria decumbens; conditions: for Plant response rating, Surinam Grass: 31 g ai/ha, scale 0 to 100 (0 no effect, 100 complete control)
How it was run: as §1

[6] = system: eastern black nightshade; assay: Test C pre-/postemergence test; assay type: in vivo, Solanum ptycanthum; conditions: for Plant response rating, Nightshade: 31 g ai/ha, scale 0 to 100 (0 no effect, 100 complete control)
How it was run: as §1

[7] = system: umbrella sedge; assay: Test C flooded paddy test; assay type: in vivo, Cyperus difformis; conditions: Flood
How it was run: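 Compound was added to standing water 3 cm above soil, flood maintained, and plants held in a greenhouse before visual scoring against controls at 13 to 15 days.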

[8] = system: Italian ryegrass; assay: Test C pre-/postemergence test; assay type: in vivo, Lolium multiflorum; conditions: for Plant response rating, Ryegrass, Italian: 31 g ai/ha, scale 0 to 100 (0 no effect, 100 complete control)
How it was run: as §1

[9] = system: morningglory; assay: Test C pre-/postemergence test; assay type: in vivo, Ipomoea coccinea; conditions: for Plant response rating, Morningglory: 31 g ai/ha, scale 0 to 100 (0 no effect, 100 complete control)
How it was run: as §1

[10] = system: Goosegrass; assay: Test C pre-/postemergence test; assay type: in vivo, Eleusin indica; conditions: for Plant response rating, Goosegrass: 31 g ai/ha, scale 0 to 100 (0 no effect, 100 complete control)
How it was run: as §1

[11] = system: corn; assay: Test C pre-/postemergence test; assay type: in vivo, Zea mays; conditions: for Plant response rating, Corn: 31 g ai/ha, scale 0 to 100 (0 no effect, 100 complete control)
How it was run: as §1

[12] = system: corn; assay: Test A pre-/postemergence greenhouse test; assay type: in vivo, Zea mays; conditions: for Plant response rating, Corn: 0 to 100 scale where 0 is no effect and 100 is complete control; for Corn plant response rating: 0 to 100 scale
How it was run: as §2

[13] = system: pigweed; assay: Test C pre-/postemergence test; assay type: in vivo, Amaranthus retroflexus; conditions: for Plant response rating, Pigweed: 31 g ai/ha, scale 0 to 100 (0 no effect, 100 complete control)
How it was run: as §1

[14] = system: crabgrass; assay: Test C pre-/postemergence test; assay type: in vivo, Digitaria sanguinalis; conditions: for Plant response rating, Crabgrass, Large: 31 g ai/ha, scale 0 to 100 (0 no effect, 100 complete control)
How it was run: as §1

[15] = system: barnyardgrass; assay: Test A pre-/postemergence greenhouse test; assay type: in vivo, Echinochloa crus-galli; conditions: for Plant response rating, Barnyardgrass: 0 to 100 scale where 0 is no effect and 100 is complete control; for Barnyardgrass plant response rating: 0 to 100 scale
How it was run: as §2

[16] = system: common (oilseed) sunflower; assay: Test C pre-/postemergence test; assay type: in vivo, Helianthus annuus; conditions: for Plant response rating, Sunflower: 31 g ai/ha, scale 0 to 100 (0 no effect, 100 complete control)
How it was run: as §1

[17] = system: johnsongrass; assay: Test C pre-/postemergence test; assay type: in vivo, Sorghum halepense; conditions: for Plant response rating, Johnsongrass: 31 g ai/ha, scale 0 to 100 (0 no effect, 100 complete control)
How it was run: as §1

[18] = 62 g ai/ha, Preemergence, scale 0 to 100
[19] = 125 g ai/ha, preemergence, scale 0 (no effect) to 100 (complete control)
[20] = preemergence, 250 g ai/ha, scale 0 (no effect) to 100 (complete control)
[21] = Postemergence, 500 g ai/ha, 0 is no effect, 100 is complete control
[22] = Preemergence, 125 g ai/ha, 0 no effect, 100 complete control
[23] = Preemergence, 500 g ai/ha, 0 no effect, 100 complete control
[24] = 250 g ai/ha, scale 0 to 100, 0 no effect, 100 complete control, 13 to 15 days
[25] = Postemergence, 125 g ai/ha, 0 is no effect, 100 is complete control

## CCc1cc[n+]([O-])c([S+]([O-])Cc2c(C(F)(F)F)nn(C)c2OC(F)F)c1 (stereo not shown) [Compound 101]
[1]; [18]
  Foxtail, Giant plant response rating: 80
[1]; [19]
  Foxtail, Giant plant response rating: 95
[1]; Preemergence
  Plant response rating, Foxtail, Giant: 70
[1]; [20]
  Foxtail, Giant plant response rating: 98
[2]; Postemergence, 125 g ai/ha
  Plant response rating, Wheat: 50
[2]; [21]
  Wheat plant response rating: 60
[2]; [22]
  Wheat plant response rating: 70
[2]; [23]
  Wheat plant response rating: 100
[3]; Postemergence, 125 g ai/ha
  Plant response rating, Crabgrass, Large: 60
[3]; [21]
  Crabgrass, Large plant response rating: 90
[3]; [22]
  Crabgrass, Large plant response rating: 90
[3]; [23]
  Crabgrass, Large plant response rating: 100
[4]; [18]
  Velvetleaf plant response rating: 30
[4]; [19]
  Velvetleaf plant response rating: 40
[4]; Preemergence
  Plant response rating, Velvetleaf: 0
[4]; [20]
  Velvetleaf plant response rating: 95
[5]; [18]
  Surinam Grass plant response rating: 80
[5]; [19]
  Surinam Grass plant response rating: 95
[5]; Preemergence
  Plant response rating, Surinam Grass: 60
[5]; [20]
  Surinam Grass plant response rating: 98
[6]; [18]
  Nightshade plant response rating: 80
[6]; [19]
  Nightshade plant response rating: 95
[6]; Preemergence
  Plant response rating, Nightshade: 10
[6]; [20]
  Nightshade plant response rating: 100
[7]; 62 g ai/ha, scale 0 to 100 (0 no effect, 100 complete control)
  Plant response rating, Sedge, Umbrella: 0
[7]; [24]
  Plant response rating, Sedge, Umbrella: 90
[8]; [19]
  Ryegrass, Italian plant response rating: 0
[8]; Preemergence
  Plant response rating, Ryegrass, Italian: 0
[8]; [20]
  Ryegrass, Italian plant response rating: 60
[9]; [18]
  Morningglory plant response rating: 60
[9]; [19]
  Morningglory plant response rating: 100
[9]; Preemergence
  Plant response rating, Morningglory: 20
[9]; [20]
  Morningglory plant response rating: 100
[10]; [18]
  Goosegrass plant response rating: 85
[10]; [19]
  Goosegrass plant response rating: 100
[10]; Preemergence
  Plant response rating, Goosegrass: 80
[10]; [20]
  Goosegrass plant response rating: 100
[11]; [18]
  Corn plant response rating: 75
[11]; [19]
  Corn plant response rating: 90
[11]; Preemergence
  Plant response rating, Corn: 40
[11]; [20]
  Corn plant response rating: 98
[12]; Postemergence, 125 g ai/ha
  Plant response rating, Corn: 60
[12]; [21]
  Corn plant response rating: 70
[12]; [22]
  Corn plant response rating: 50
[12]; [23]
  Corn plant response rating: 90
[13]; [18]
  Pigweed plant response rating: 50
[13]; [19]
  Pigweed plant response rating: 95
[13]; Preemergence
  Plant response rating, Pigweed: 50
[13]; [20]
  Pigweed plant response rating: 98
[14]; [18]
  Crabgrass, Large plant response rating: 85
[14]; [19]
  Crabgrass, Large plant response rating: 95
[14]; Preemergence
  Plant response rating, Crabgrass, Large: 50
[14]; [20]
  Crabgrass, Large plant response rating: 98
[15]; Postemergence, 125 g ai/ha
  Plant response rating, Barnyardgrass: 80
[15]; [21]
  Barnyardgrass plant response rating: 90
[15]; [22]
  Barnyardgrass plant response rating: 90
[15]; [23]
  Barnyardgrass plant response rating: 100
[16]; [18]
  Sunflower plant response rating: 0
[16]; [19]
  Sunflower plant response rating: 5
[16]; Preemergence
  Plant response rating, Sunflower: 0
[16]; [20]
  Sunflower plant response rating: 60
[17]; [18]
  Johnsongrass plant response rating: 85
[17]; [19]
  Johnsongrass plant response rating: 95
[17]; Preemergence
  Plant response rating, Johnsongrass: 70
[17]; [20]
  Johnsongrass plant response rating: 100

## Cc1cc[n+]([O-])c(S(=O)(=O)Cc2c(C(F)(F)F)nn(C)c2Cl)c1 [Compound 19]
[1]; [18]
  Foxtail, Giant plant response rating: 100
[1]; Preemergence
  Plant response rating, Foxtail, Giant: 100
[1]; Preemergence, 250 g ai/ha
  Plant response rating (0 to 100), Foxtail, Giant: 100
[2]; [25]
  Wheat plant response rating: 0
[2]; [21]
  Wheat plant response rating: 50
[2]; [22]
  Wheat plant response rating: 40
[2]; Preemergence, 500 g ai/ha
  Plant response rating, Wheat: 70
[3]; [25]
  Crabgrass, Large plant response rating: 40
[3]; [21]
  Crabgrass, Large plant response rating: 80
[3]; [22]
  Crabgrass, Large plant response rating: 70
[3]; Preemergence, 500 g ai/ha
  Plant response rating, Crabgrass, Large: 100
[4]; [18]
  Velvetleaf plant response rating: 0
[4]; Preemergence
  Plant response rating, Velvetleaf: 0
[5]; [18]
  Surinam Grass plant response rating: 50
[5]; Preemergence
  Plant response rating, Surinam Grass: 0
[6]; [18]
  Nightshade plant response rating: 100
[6]; Preemergence
  Plant response rating, Nightshade: 85
[7]; 31 g ai/ha, scale 0 to 100 (0 no effect, 100 complete control)
  Plant response rating, Sedge, Umbrella: 0
[7]; 62 g ai/ha, scale 0 to 100, 0 no effect, 100 complete control, 13 to 15 days
  Plant response rating, Sedge, Umbrella: 0
[7]; 125 g ai/ha, scale 0 to 100, 0 no effect, 100 complete control, 13 to 15 days
  Plant response rating, Sedge, Umbrella: 70
[7]; [24]
  Plant response rating, Sedge, Umbrella: 95
[8]; [18]
  Ryegrass, Italian plant response rating: 30
[8]; Preemergence
  Plant response rating, Ryegrass, Italian: 0
[9]; [18]
  Morningglory plant response rating: 60
[9]; Preemergence
  Plant response rating, Morningglory: 0
[10]; [18]
  Goosegrass plant response rating: 100
[10]; Preemergence
  Plant response rating, Goosegrass: 100
[10]; Preemergence, 250 g ai/ha
  Plant response rating (0 to 100), Goosegrass: 100
[11]; [18]
  Corn plant response rating: 40
[11]; Preemergence
  Plant response rating, Corn: 0
[11]; Preemergence, 250 g ai/ha
  Plant response rating (0 to 100), Corn: 70
[11]; preemergence, 125 g ai/ha, scale 0 (no effect) to 100 (complete control)
  Corn plant response rating: 40
[12]; [25]
  Corn plant response rating: 0
[12]; [21]
  Corn plant response rating: 50
[12]; [22]
  Corn plant response rating: 30
[12]; Preemergence, 500 g ai/ha
  Plant response rating, Corn: 50
[13]; [18]
  Pigweed plant response rating: 100
[13]; Preemergence
  Plant response rating, Pigweed: 80
[14]; [18]
  Crabgrass, Large plant response rating: 100
[14]; Preemergence
  Plant response rating, Crabgrass, Large: 98
[14]; Preemergence, 250 g ai/ha
  Plant response rating (0 to 100), Crabgrass, Large: 100
[15]; [25]
  Barnyardgrass plant response rating: 40
[15]; [21]
  Barnyardgrass plant response rating: 80
[15]; [22]
  Barnyardgrass plant response rating: 80
[15]; Preemergence, 500 g ai/ha
  Plant response rating, Barnyardgrass: 100
[16]; [18]
  Sunflower plant response rating: 0
[16]; Preemergence
  Plant response rating, Sunflower: 0
[17]; [18]
  Johnsongrass plant response rating: 80
[17]; Preemergence
  Plant response rating, Johnsongrass: 10
[17]; Preemergence, 250 g ai/ha
  Plant response rating (0 to 100), Johnsongrass: 100
